Where “and” joins values, the source holds several entries; their conditions need not be identical. Identical values can stand only once. Like-named read-outs stand apart in the source and are kept apart here.
How the values were obtained:
[1] = tested on: S1R–BiP complex; assay: S1R-BiP dissociation assay in CHO cells (co-IP, ELISA); format: cell-based
Protocol: The activity of compound 7i was evaluated in regard to its ability to dissociate the S1R–BiP complex. The S1R–BiP dissociation assay was performed by Amylgen (Montferrier-sur-Lez, France) as described in [13, 79]. Briefly, CHO cells were treated with test compounds for 30 min (37 °C). Crosslinking was performed with dithiobis succinimidyl propionate (DSP; Thermoscientific, Waltham, MA, USA). Lysis was performed after incubation for 15 min on ice. After centrifugation, supernatants were incubated overnight (4 °C) with the S1R antibody (Abcam, Cambridge, UK). Lysates were incubated with Sepharose Protein-A (Invitrogen). After the first centrifugation, the pellet was resuspended in radioimmunoprecipitation assay (RIPA) buffer. After a second centrifugation, the pellet was resuspended in 2× sample buffer/bMCE buffer. After the third centrifugation, supernatants were analyzed for BiP immunoreactivity (SEC343Mu ELISA, USCNK Life Sciences, Wuhan, China).

[2] = tested on: T1, P-gp; assay: P-gp substrate assessment, Caco-2 with and without verapamil; format: in vitro ADME; conditions: human
T1 construct: in the Caco-2 cell line with and without verapamil; host or cells: Caco-2
Protocol: (§1) The compound was classically evaluated at 10 µM for all the ADME analyses. Bidirectional permeability (apical A to basolateral B pH 6.5/7.4 and basolateral B to apical A pH 7.4/6.5) was assessed in the epithelial colorectal adenocarcinoma cell line (Caco-2 cell line). Results were expressed as × 10^−6cm/s (Papp) and as % recovery. Efflux ratio, i.e., Papp(B-A)/Papp(A-B), was calculated. Plasma protein binding was analyzed by HPLC-MS/MS after 4-h incubation at 37 °C, as described by Banker et al.. Concentration was evaluated by LC/MS-MS. CYP inhibition was performed in human liver microsomes as described in [61]. Analysis of the respective metabolites. was performed by HPLC-MS/MS. Transporter inhibition analysis was also performed in overexpressing cell lines. Respective metabolites for each specific transporter substrate were analyzed by fluorometry or scintillation counting and % inhibition of control values were calculated. P-glycoprotein transporter substrate assessment was performed by bidirectional permeability analysis (apical A to basolateral B pH 7.4/7.4 and basolateral B to apical A pH 7.4/7.4) in the Caco-2 cell line with and without verapamil, as described in [59]. Results were expressed as ×10^−6 cm/s (Papp) and as % recovery. The efflux ratio, i.e., Papp(B-A)/Papp(A-B), was calculated. CYP450 induction characterization was performed on human hepatocytes. The mRNA levels of 7 different CYPs were analyzed by qPCR, as described in [72]. The compound was evaluated at 1, 10 and 100 µM. Fold-induction values were determined and compared to cut-off values, as defined for each CYP isozyme in each hepatocyte lot.

[3] = biological target: T2, P-gp (Homo sapiens, UniProt P08183); assay: as above; format: in vitro ADME
T2 construct: in the Caco-2 cell line with and without verapamil; host or cells: Caco-2
T2 sequence (P08183 whole entry): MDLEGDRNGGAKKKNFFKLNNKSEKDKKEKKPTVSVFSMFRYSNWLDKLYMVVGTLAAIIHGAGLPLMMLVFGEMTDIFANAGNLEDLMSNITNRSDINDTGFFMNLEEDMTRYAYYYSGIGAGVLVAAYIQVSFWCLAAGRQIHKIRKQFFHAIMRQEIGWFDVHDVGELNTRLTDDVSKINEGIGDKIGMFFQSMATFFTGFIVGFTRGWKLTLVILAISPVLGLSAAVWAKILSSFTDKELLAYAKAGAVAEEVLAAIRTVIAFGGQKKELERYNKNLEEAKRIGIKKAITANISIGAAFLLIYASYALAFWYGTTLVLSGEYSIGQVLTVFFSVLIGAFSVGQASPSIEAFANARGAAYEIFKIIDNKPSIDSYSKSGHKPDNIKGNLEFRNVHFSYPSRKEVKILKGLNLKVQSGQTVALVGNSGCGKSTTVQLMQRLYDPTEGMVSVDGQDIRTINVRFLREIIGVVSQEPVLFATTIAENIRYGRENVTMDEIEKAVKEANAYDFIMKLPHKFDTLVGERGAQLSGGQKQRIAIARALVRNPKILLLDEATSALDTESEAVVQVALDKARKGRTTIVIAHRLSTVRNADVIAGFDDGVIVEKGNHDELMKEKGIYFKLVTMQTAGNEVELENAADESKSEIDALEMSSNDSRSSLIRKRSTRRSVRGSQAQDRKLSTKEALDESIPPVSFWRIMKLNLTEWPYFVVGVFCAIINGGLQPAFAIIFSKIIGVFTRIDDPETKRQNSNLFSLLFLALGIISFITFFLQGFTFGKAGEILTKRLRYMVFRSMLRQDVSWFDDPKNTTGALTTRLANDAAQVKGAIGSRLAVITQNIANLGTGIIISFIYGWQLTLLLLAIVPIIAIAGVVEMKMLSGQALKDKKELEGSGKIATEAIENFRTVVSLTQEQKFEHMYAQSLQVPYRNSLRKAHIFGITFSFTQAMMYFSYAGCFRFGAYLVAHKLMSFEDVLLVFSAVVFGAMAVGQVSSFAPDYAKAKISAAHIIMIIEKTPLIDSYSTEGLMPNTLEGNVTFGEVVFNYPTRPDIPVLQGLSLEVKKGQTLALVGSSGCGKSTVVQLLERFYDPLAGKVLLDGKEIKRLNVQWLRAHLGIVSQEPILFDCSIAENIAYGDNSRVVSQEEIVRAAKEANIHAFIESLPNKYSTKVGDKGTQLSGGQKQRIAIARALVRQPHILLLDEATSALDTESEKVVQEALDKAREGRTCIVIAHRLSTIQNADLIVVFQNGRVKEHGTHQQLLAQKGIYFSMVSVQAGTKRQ
Protocol: as §1

[4] = tested on: S. typhimurium TA1537; assay: Ames test; conditions: 7i 40 µg/plate
[5] = Pharmacokinetic study in plasma and brain; format: in vivo, male C57BL/6 mice; conditions: 1 mg/kg; for Brain/Plasma / Kp at 0.5 h: at 30 min; for Brain AUC t^∞/AUC ∞: unit assumed; for Kp at 0.5 h / Tmax / half-life / concentration at 30 min / bioavailability: male, C57BL/6, mouse
Protocol: A pharmacokinetic (PK) study was performed by Eurofins Cerep (Poitiers, France) in male C57BL/6 mice (20–30 g) following i.v. and p.o. administrations of compound 7i at 1 mg/kg.
The plasma and perfused brain samples were collected at 0, 30, 60, 120, 240 and 280 min after treatment administration (n = 3 animal/time point). Animals were terminated under inhalant CO2 euthanasia. Blood was collected via cardiac puncture. Aliquots were collected in tubes coated with lithium heparin and centrifuged. The plasma was harvested and kept frozen at −70 °C until further processing. Immediately following the collection of the blood sample, animals were perfused with heparinized saline (10 IU/mL). The brain was collected, rinsed with saline to remove residual blood, weighed and stored at −70 °C until further analysis.
Plasma samples were processed using acetonitrile precipitation and analyzed by LC-MS/MS. A plasma calibration curve was generated. Aliquots of drug-free plasma were spiked with compound 7i at the specified concentration levels. The spiked plasma samples were processed together with the unknown plasma samples using the same procedure.
Each brain was homogenized for 10 s on ice in a proper volume of cold phosphate-buffered saline (PBS) at pH 7.4. The homogenate was centrifuged at 5400× g for 15 min at 4 °C. Supernatants were subsequently processed using acetonitrile precipitation and analyzed by LC-MS/MS. A brain calibration curve was generated. Aliquots of drug-free brain homogenate were spiked with compound 7i at the specified concentration levels. The spiked brain homogenate samples were processed together with the unknown brain homogenate samples using the same procedure.
Concentrations of compound 7i in the unknown plasma and brain samples were determined using the respective calibration curve. The reportable linear range of the assay was determined, along with the lower limit of quantitation (LLQ).
The exposure levels of compound 7i in the plasma and brain samples as determined by LC-MS/MS were reported (ng/mL). The [brain]/[plasma] ratios were calculated.
Pharmacokinetic modeling was performed using the non-compartmental method based on statistical moments. In this method, exchanges between kinetic spaces are expressed in time. The curves were obtained using R software (Package ggplot2, v3.3.6).

[6] = tested on: S. typhimurium TA102; conditions: Salmonella typhimurium

SMILES: CN(CCCNC(=O)c1ccc(Cl)cc1)Cc1ccccc1 [compound 7i]
- effect on S1R–BiP association ([1]; 1 and 10 µM, 30-min incubation): significantly causes a dose-dependent dissociation
- S1R functional activity ([1]; S1R–BiP dissociation blocked by NE-100): agonist capacity
- effect on S1R–BiP dissociation in presence of NE-100 ([1]; co-treatment with NE-100 (10 µM)): blocked
- S1R antagonist capacity (co-treatment with PRE-084) ([1]; co-treatment with PRE-084 (10 µM)): absence of antagonist capacity
- Papp A→B at 10 µM ([2]; pH 7.4, Caco-2, 10 µM, with verapamil, read-out: P-gp substrate, Verapamil, A/B pH7.4/7.4): 280 nm/s
- Papp B→A at 10 µM ([2]; pH 7.4, Caco-2, 10 µM, with verapamil, read-out: P-gp substrate, Verapamil, B/A pH7.4/7.4): 169 nm/s
- efflux ratio at 10 µM ([2]; Caco-2, pH 7.4/7.4, with verapamil, read-out: P-gp substrate, Verapamil, e-ratio): 0.6
- P-gp substrate (conclusion) ([3]; comparison of efflux ratios with/without verapamil): not a substrate
- Papp A→B at 10 µM ([3]; human, pH 7.4, Caco-2, 10 µM, PBS (no verapamil), read-out: P-gp substrate, PBS, A/B pH7.4/7.4): 458 nm/s
- Papp B→A at 10 µM ([3]; human, pH 7.4, Caco-2, 10 µM, PBS (no verapamil), read-out: P-gp substrate, PBS, B/A pH7.4/7.4): 117 nm/s
- efflux ratio at 10 µM ([3]; human, Caco-2, pH 7.4/7.4, PBS (no verapamil), read-out: P-gp substrate, PBS, e-ratio): 0.3
- Ames TA1537 +S9 (Mean revertants/well per title) ([4]; +S9, positive control 2-anthramine 0.5): 1.1
- Ames TA1537 −S9 (Mean revertants/well per title) ([4]; −S9, positive control 9-amino-acridine 1.56): 0.9
- increase of total clearance, p.o. versus i.v. [5]: 20 times
- C30 after i.v. relative to p.o. ([5]; in the plasma or in the brain): more than 10 times
- CLT ([5]; i.v.): 3.8 mL/min
- CLbrain ([5]; i.v.): 1.8 mL/min
- D (diffusion in the brain) ([5]; i.v.): 62% and 61.7%
- MAT ([5]; i.v.): 0 min
- Plasma AUC t^∞/AUC ∞ ([5]; i.v.): 0.9
- Brain/Plasma ([5]; i.v.): 2.9
- Brain AUC t^∞/AUC ∞ ([5]; i.v., brain): 5.9%
- Plasma Cmax (simulated) ([5]; i.v., mouse plasma, simulated): 0.18 µg/mL
- Kp at 0.5 h ([5]; brain, iv): 3
- Tmax ([5]; brain, iv, i.v., brain, read-out: Brain tmax): ≤ 30 min
- half-life ([5]; brain, iv, read-out: Brain t1/2 el): 96.4 min
- Kp at 0.5 h ([5]; brain, po): 3
- Tmax ([5]; brain, po, p.o., brain, read-out: Brain tmax): ≤ 30 min
- half-life ([5]; brain, po, read-out: Brain t1/2 el): 78.9 min
- concentration at 30 min ([5]; iv, brain, read-out: Brain C30): 0.234 µg/mL
- bioavailability ([5]; plasma, iv): 100%
- concentration at 30 min ([5]; plasma, iv, read-out: Plasma C30): 0.0798 µg/mL
- Tmax ([5]; plasma, iv, i.v., mouse plasma, read-out: Plasma tmax): 0 min
- half-life ([5]; plasma, iv, read-out: Plasma t1/2 el): 44.5 min
- bioavailability ([5]; plasma, po): 5%
- concentration at 30 min ([5]; plasma, po, read-out: Plasma C30): 0.0064 µg/mL
- Tmax ([5]; plasma, po, p.o., mouse plasma, read-out: Plasma tmax): < 30 min
- half-life ([5]; plasma, po, read-out: Plasma t1/2 el): 25.5 min
- concentration at 30 min ([5]; po, brain, read-out: Brain C30): 0.0207 µg/mL
- CLT ([5]; p.o.): 74.9 mL/min
- CLbrain ([5]; p.o.): 12.8 mL/min
- MAT ([5]; p.o.): 16.5 min
- Plasma AUC t^∞/AUC ∞ ([5]; p.o.): 6.1
- Vd ([5]; p.o.): 0.168 L/kg
- Brain/Plasma ([5]; p.o.): 3.2
- Brain AUC t^∞/AUC ∞ ([5]; p.o., brain): 7.6%
- Ames TA102 +S9 (Mean revertants/well per title) [6]: 1.0
- Ames TA102 −S9 (Mean revertants/well per title) [6]: 0.7

From paper PMC9569529, “Safe and Efficient Sigma1 Ligand: A Potential Drug Candidate for Multiple Sclerosis” (International Journal of Molecular Sciences, 2022)
